Results as given in ChEMBL document CHEMBL5465560, “Selectivity Literature for EUbOPEN Chemogenomic Library” (2024).

Experiments:
[1] = biological target: RAC-beta serine/threonine-protein kinase (Homo sapiens) (UniProt P31751); test: Selectivity interaction (Kinase panel (literature)) EUB0001199aCl AKT2; conditions: at 1 µM
[2] = biological target: Dual specificity tyrosine-phosphorylation-regulated kinase 1A (Homo sapiens, UniProt Q13627); test: Selectivity interaction (KinomeScan (DiscoverX)) EUB0000666a DYRK1A; conditions: at 10 µM
[3] = biological target: Receptor-interacting serine/threonine-protein kinase 2 (Homo sapiens, UniProt O43353); test: Selectivity interaction (KinomeScan (DiscoverX)) EUB0000229b RIPK2; conditions: at 10 µM
[4] = biological target: Mitogen-activated protein kinase kinase kinase kinase 4 (Homo sapiens, UniProt O95819); test: Selectivity interaction (KinomeScan (DiscoverX)) EUB0000229b MAP4K4; conditions: at 10 µM
[5] = biological target: T1, Interleukin-1 receptor-associated kinase 3 (Homo sapiens) (UniProt Q9Y616); test: Selectivity interaction (KinomeScan (DiscoverX)) EUB0001550a IRAK3; conditions: at 1 µM
T1 sequence (whole entry): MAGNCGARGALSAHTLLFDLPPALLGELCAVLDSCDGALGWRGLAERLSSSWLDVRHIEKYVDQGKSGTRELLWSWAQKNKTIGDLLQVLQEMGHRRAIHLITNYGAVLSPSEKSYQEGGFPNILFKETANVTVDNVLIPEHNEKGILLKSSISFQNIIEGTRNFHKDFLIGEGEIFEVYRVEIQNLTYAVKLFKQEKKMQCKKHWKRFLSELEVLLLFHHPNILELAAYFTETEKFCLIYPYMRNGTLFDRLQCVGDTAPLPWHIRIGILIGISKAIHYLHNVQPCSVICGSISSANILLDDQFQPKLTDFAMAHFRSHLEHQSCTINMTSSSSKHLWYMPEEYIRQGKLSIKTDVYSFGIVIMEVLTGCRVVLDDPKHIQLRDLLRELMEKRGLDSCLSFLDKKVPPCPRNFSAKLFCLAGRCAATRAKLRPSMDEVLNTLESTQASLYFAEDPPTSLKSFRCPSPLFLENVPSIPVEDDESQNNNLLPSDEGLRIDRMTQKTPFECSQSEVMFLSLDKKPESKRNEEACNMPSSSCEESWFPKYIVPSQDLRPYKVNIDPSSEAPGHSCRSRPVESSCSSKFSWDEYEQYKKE

[6] = biological target: T2, Dual specificity mitogen-activated protein kinase kinase 6 (Homo sapiens) (UniProt P52564); test: Selectivity interaction (Kinase panel (Invitrogen)) EUB0000639a MAP2K6; conditions: at 200 nM
T2 sequence (whole entry): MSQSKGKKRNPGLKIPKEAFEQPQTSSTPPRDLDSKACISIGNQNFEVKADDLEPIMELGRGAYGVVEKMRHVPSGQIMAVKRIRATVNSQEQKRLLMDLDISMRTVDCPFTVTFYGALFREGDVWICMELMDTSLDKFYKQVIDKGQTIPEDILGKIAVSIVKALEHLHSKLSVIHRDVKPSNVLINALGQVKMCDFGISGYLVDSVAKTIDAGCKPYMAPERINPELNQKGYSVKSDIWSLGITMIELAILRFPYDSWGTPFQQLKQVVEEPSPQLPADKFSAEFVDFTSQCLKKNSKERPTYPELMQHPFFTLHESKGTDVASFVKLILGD

[7] = biological target: Mitogen-activated protein kinase 8 (Homo sapiens, UniProt P45983); test: Selectivity interaction (KinomeScan (DiscoverX)) EUB0000092b MAPK8; conditions: at 10 µM
[8] = biological target: T3, Serine/threonine-protein kinase Nek2 (Homo sapiens) (UniProt P51955); test: Selectivity interaction (KinomeScan (DiscoverX)) EUB0000092b NEK2; conditions: at 10 µM
T3 sequence (whole entry): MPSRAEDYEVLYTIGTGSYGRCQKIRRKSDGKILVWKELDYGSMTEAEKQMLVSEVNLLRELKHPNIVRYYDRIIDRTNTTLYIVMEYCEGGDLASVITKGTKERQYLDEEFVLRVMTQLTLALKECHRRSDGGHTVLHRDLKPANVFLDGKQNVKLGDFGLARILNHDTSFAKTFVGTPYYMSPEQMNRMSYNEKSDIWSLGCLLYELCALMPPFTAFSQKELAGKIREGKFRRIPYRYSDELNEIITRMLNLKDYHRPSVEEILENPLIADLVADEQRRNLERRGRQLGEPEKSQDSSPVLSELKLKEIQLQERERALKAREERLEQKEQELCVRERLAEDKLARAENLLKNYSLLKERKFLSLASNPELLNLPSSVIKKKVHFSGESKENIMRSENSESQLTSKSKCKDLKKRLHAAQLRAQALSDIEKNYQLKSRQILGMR

[9] = biological target: Serine/threonine-protein kinase 32B (Homo sapiens) (UniProt Q9NY57); test: Selectivity interaction (KinomeScan (DiscoverX)) EUB0000092b STK32B; conditions: at 10 µM
[10] = biological target: Glycogen synthase kinase-3 beta (Homo sapiens, UniProt P49841); test: Selectivity interaction (KinomeScan (DiscoverX)) EUB0000618a GSK3B; conditions: at 10 µM
[11] = biological target: T4, Serine/threonine-protein kinase MAK (Homo sapiens) (UniProt P20794); conditions: at 10 µM
T4 sequence (whole entry): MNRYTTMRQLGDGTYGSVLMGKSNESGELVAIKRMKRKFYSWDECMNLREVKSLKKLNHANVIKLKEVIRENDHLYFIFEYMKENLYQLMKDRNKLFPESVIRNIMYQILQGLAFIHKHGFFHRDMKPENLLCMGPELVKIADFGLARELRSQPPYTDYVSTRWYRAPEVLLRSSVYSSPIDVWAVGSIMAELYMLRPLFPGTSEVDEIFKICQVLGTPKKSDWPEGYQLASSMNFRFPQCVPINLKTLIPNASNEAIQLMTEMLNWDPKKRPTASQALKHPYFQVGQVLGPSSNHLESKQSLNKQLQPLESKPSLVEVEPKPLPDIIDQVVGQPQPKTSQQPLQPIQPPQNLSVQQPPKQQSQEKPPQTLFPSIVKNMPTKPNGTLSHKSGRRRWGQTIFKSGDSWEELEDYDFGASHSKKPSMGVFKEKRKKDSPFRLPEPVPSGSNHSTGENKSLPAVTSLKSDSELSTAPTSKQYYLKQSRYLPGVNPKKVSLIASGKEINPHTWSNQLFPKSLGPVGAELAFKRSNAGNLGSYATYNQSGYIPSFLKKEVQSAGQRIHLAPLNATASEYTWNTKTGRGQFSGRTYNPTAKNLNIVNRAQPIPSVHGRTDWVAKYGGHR

[12] = biological target: Serine/threonine-protein kinase NIM1 (Homo sapiens, UniProt Q8IY84); conditions: at 10 µM
[13] = biological target: Fibroblast growth factor receptor 1 (Homo sapiens, UniProt P11362)
[14] = biological target: G protein-coupled receptor kinase 4 (Homo sapiens) (UniProt P32298); test: Selectivity interaction (KinomeScan (DiscoverX)) EUB0000695a GRK4; conditions: at 100 nM
[15] = biological target: Cyclin-dependent kinase 8 (Homo sapiens, UniProt P49336); test: Selectivity interaction (KinomeScan (DiscoverX)) EUB0000607a CDK8; conditions: at 10 µM
Chain of Cyclin-dependent kinase 8 (P49336 whole entry): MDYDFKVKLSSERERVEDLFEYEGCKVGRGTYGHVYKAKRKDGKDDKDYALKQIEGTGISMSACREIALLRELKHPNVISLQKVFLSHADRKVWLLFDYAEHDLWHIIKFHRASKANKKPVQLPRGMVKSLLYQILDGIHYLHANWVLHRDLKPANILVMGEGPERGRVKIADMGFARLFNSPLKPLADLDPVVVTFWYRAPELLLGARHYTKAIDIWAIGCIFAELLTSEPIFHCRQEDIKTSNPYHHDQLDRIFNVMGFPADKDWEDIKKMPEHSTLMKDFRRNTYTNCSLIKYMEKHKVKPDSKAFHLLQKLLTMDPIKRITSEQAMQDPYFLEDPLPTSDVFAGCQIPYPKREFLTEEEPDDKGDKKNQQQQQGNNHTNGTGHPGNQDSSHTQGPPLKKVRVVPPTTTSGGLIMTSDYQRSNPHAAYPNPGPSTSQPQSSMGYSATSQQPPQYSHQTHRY

Chain of G protein-coupled receptor kinase 4 (Homo sapiens) (P32298 whole entry, looked up): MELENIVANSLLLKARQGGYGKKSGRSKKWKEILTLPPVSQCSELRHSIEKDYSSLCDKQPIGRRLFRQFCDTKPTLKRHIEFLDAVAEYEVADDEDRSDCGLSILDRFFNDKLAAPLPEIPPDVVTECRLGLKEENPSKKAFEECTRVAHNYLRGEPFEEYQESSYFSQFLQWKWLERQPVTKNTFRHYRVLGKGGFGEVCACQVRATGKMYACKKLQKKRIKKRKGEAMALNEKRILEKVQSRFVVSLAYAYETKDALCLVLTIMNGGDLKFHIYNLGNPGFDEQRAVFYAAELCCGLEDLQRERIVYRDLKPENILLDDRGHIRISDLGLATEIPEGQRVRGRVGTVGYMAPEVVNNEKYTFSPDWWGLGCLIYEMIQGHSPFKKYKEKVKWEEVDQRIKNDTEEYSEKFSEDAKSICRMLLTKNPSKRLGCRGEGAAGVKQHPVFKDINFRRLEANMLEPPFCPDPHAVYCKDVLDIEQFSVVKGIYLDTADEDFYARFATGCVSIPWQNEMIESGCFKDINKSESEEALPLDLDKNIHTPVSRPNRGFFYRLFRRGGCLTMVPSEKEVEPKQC
Chain of RAC-beta serine/threonine-protein kinase (Homo sapiens) (P31751 whole entry): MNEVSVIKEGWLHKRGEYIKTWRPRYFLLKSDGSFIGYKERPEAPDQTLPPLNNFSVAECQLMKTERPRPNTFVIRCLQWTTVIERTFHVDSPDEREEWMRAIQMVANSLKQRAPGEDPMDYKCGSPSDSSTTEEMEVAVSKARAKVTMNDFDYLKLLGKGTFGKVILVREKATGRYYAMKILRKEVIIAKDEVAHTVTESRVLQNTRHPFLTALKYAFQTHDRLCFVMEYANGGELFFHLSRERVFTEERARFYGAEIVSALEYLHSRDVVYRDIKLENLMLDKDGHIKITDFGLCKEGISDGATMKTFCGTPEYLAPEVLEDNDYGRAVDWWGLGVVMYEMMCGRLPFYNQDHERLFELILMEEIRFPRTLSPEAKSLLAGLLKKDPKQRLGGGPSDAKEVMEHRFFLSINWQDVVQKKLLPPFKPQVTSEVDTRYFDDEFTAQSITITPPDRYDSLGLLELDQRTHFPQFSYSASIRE
Chain of Mitogen-activated protein kinase 8 (P45983 whole entry): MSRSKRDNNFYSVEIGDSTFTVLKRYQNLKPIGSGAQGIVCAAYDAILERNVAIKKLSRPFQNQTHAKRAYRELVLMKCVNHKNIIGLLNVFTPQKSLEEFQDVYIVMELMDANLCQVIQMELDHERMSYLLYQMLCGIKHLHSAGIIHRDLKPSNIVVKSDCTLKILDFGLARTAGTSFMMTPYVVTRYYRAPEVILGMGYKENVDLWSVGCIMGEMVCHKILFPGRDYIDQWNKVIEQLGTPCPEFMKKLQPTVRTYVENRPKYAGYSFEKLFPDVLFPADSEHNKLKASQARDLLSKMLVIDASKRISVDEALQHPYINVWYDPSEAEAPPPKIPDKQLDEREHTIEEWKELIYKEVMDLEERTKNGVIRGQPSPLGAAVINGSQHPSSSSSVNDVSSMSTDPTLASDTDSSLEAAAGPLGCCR
Chain of Glycogen synthase kinase-3 beta (P49841 whole entry, looked up): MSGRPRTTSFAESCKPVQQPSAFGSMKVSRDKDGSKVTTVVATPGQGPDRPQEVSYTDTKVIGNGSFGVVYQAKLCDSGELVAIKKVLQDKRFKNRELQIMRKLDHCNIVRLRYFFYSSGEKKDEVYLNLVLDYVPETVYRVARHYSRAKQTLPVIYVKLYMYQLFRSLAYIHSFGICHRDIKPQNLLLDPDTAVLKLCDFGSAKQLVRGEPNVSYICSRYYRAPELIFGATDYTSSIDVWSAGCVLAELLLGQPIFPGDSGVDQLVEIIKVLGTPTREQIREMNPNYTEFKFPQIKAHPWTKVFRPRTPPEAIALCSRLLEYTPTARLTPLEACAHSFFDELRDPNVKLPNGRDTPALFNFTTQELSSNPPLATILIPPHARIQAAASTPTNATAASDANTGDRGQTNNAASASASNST
Chain of Receptor-interacting serine/threonine-protein kinase 2 (O43353 whole entry): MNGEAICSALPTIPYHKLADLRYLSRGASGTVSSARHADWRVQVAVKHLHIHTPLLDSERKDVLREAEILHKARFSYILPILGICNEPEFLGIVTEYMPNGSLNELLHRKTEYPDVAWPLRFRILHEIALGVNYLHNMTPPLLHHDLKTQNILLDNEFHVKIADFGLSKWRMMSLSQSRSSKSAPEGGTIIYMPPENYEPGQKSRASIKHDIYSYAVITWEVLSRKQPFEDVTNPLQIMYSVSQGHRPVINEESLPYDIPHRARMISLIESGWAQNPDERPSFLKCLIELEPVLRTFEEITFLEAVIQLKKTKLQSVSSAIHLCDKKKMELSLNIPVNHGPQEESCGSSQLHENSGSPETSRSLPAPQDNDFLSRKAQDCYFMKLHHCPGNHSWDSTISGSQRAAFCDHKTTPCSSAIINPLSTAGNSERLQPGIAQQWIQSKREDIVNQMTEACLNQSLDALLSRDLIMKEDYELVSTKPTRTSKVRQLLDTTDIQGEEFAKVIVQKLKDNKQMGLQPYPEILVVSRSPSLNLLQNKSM
Chain of Serine/threonine-protein kinase 32B (Homo sapiens) (Q9NY57 whole entry): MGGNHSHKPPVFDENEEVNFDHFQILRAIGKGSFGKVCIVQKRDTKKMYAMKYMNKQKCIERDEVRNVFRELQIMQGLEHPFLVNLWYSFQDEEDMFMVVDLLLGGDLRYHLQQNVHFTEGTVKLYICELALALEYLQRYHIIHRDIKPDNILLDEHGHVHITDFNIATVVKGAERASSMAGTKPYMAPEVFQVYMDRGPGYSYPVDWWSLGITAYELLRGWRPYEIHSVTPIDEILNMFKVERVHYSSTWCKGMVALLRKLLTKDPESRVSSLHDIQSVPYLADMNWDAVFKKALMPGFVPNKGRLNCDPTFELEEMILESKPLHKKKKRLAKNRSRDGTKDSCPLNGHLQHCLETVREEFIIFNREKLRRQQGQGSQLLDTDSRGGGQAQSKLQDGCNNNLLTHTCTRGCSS
Chain of Serine/threonine-protein kinase NIM1 (Q8IY84 whole entry): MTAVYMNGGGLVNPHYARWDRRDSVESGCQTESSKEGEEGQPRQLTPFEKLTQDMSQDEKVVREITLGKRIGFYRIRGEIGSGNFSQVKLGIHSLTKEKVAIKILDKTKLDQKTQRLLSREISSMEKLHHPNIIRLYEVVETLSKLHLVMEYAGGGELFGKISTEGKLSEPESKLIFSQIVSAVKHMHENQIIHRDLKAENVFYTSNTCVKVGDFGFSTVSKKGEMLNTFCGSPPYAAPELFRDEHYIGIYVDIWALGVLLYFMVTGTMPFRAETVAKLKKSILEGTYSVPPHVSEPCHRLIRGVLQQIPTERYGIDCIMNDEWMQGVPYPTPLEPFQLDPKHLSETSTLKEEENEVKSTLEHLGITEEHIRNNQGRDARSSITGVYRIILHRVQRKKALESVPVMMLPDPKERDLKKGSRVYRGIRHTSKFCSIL
Chain of Mitogen-activated protein kinase kinase kinase kinase 4 (O95819 2-1239 limits assumed): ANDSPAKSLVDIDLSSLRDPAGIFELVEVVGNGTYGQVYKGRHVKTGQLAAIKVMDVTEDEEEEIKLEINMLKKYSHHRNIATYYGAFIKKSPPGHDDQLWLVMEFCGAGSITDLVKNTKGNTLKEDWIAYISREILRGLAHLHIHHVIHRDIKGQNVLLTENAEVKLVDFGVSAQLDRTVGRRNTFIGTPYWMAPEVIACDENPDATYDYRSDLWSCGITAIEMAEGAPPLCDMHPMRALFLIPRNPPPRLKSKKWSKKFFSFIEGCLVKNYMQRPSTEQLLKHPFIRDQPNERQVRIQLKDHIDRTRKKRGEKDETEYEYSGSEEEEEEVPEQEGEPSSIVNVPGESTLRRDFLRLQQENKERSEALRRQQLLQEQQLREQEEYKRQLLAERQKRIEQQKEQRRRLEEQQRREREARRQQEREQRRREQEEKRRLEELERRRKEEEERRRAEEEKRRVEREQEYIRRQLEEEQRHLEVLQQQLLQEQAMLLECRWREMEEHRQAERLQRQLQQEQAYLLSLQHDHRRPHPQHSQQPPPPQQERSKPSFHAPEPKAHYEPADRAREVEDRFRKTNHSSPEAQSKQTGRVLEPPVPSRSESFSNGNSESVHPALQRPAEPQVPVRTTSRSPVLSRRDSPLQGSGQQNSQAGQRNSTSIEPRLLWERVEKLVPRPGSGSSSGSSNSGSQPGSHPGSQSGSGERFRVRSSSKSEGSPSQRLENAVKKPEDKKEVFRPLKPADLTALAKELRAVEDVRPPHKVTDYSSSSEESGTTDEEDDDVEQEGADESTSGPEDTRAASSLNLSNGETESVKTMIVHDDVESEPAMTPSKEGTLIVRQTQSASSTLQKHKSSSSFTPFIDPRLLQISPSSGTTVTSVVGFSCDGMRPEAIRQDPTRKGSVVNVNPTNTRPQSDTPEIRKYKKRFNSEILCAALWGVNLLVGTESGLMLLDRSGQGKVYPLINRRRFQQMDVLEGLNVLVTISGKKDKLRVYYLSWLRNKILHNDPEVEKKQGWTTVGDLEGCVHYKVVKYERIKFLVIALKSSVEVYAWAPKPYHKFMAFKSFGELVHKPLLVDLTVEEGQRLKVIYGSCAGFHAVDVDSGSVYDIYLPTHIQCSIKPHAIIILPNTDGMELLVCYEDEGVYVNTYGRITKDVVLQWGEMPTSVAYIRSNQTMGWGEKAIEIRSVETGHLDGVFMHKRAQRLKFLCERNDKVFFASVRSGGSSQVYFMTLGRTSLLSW

CN1Cc2nccc(-c3cn(C)nc3-c3ccc(F)cc3)c2C1=O
% of inhibition [1]: 7%

O=C(NOC[C@H](O)CO)c1ccc(F)c(F)c1Nc1ccc(I)cc1F
% of control [2]: 100%

COc1cc(N(C)c2ccnc3ccc(C(F)(F)F)cc23)cc(OC)c1OC
% binding [3]: 58% | % binding [4]: 86%

CN(C)CC#Cc1ccc2[nH]c3c(c2c1)-c1nc(N)ncc1CCC3
% of control [5]: 9.2%

CC[C@@H]1[C@H](F)C(=O)N[C@@H]1COc1nccc2cc(C(N)=O)c(OC)cc12 [ZIMLOVISERTIB]
% of inhibition [6]: 14.8%

CCC(=O)N1CCN(c2ccc(-n3c(=O)ccc4cnc5ccc(-c6cnc7ccccc7c6)cc5c43)cc2C(F)(F)F)CC1
% of control [7]: 22% | % of control [8]: 90% | % of control [9]: 87%

O[C@H]1CC[C@H](Nc2ncc3nc(Nc4c(F)cc(F)cc4F)n([C@H]4CCOC4)c3n2)CC1
% of control [10]: 95%

Cc1cc([C@@H](C)Nc2ccccc2C(=O)O)c2nc(N3CCOCC3)cc(=O)n2c1 [AZD-6482]
% of control [11]: 67% | % of control [12]: 100%

CCc1cccc(CC)c1NC(=O)c1nn(C)c2c1CCc1cnc(Nc3ccc(C(=O)NC4CCN(C)CC4)cc3OC(F)(F)F)nc1-2
IC50 [13]: > 10 µM

Cc1cc(F)c(C(=O)Nc2cccc(-c3nncn3C(C)C)n2)cc1-n1cnc(C2CC2)c1
% of control [14]: 100%

CNC(=O)Nc1ccc(-c2nc(N3CC4CCC(C3)O4)c3cnn(C4CCC5(CC4)OCCO5)c3n2)cc1
% of control [15]: 100%
